Data taken from ChEMBL document CHEMBL3885861, “Open TG-GATES”.

Species on record: Rattus norvegicus
Assay: Open TG-GATES - Regimen: Single
Format: toxicity, organism-based, Sprague-Dawley
Parameters: regimen Single, gender Male, age 6 weeks
Conditions: in vivo, po, 0 mg/kg, route gavage, dose level Control; for APTT / Bas / Eos / Fbg / Hb / Ht / Lym / MCH / MCHC / MCV / Mono / Neu / PT / Plat / RBC / Ret / WBC: tissue Blood; for KIDNEY_L / KIDNEY_R / KIDNEY_TOTAL: tissue Kidney; for LIVER: tissue Liver; for A/G / ALP / ALT / AST / BUN / CRE / Ca / Cl / DBIL / GLC / IP / K / LDH / Na / PL / RALB / TBIL / TC / TG / TP / gamma-GTP: tissue Plasma

Structure (SMILES): CCOc1ccc(NC(=O)CC(C)O)cc1 (configuration not stated) [BUCETIN]
- TERMINAL_BW (3 h): 208.8 g
- APTT (3 h): 14.7 s
- Bas (3 h): 0%
- Eos (3 h): 1%
- Fbg (3 h): 294.8 mg/dL
- Hb (3 h): 12.7 g/dL
- Ht (3 h): 38.3%
- Lym (3 h): 78.2%
- MCH (3 h): 21.4 pg
- MCHC (3 h): 33.2%
- MCV (3 h): 64.5 fL
- Mono (3 h): 3.2%
- Neu (3 h): 17.2%
- PT (3 h): 13.6 s
- Plat (3 h): 115.4 x10_4/uL
- RBC (3 h): 594.2 x10_4/ul
- Ret (3 h): 8.7%
- WBC (3 h): 84.1 x10_2/uL
- KIDNEY_L (3 h): 0.9 g
- KIDNEY_R (3 h): 0.9 g
- KIDNEY_TOTAL (3 h): 1.8 g
- LIVER (3 h): 9.1 g
- A/G (3 h): 0.9
- ALP (3 h): 1389.8 IU/L
- ALT (3 h): 35.8 IU/L
- AST (3 h): 75 IU/L
- BUN (3 h): 9.8 mg/dL
- CRE (3 h): 0.2 mg/dL
- Ca (3 h): 10.6 mg/dL
- Cl (3 h): 105.2 meq/L
- DBIL (3 h): 0.02 mg/dL
- GLC (3 h): 178 mg/dL
- IP (3 h): 8.6 mg/dL
- K (3 h): 4.3 meq/L
- LDH (3 h): 77.2 IU/L
- Na (3 h): 141.8 meq/L
- PL (3 h): 143.4 mg/dL
- RALB (3 h): 2.5 g/dL
- TBIL (3 h): 0.06 mg/dL
- TC (3 h): 81.6 mg/dL
- TG (3 h): 50.4 mg/dL
- TP (3 h): 5.4 g/dL
- gamma-GTP (3 h): 2 IU/L
- TERMINAL_BW (6 h): 211.1 g
- APTT (6 h): 16.7 s
- Bas (6 h): 0.2%
- Eos (6 h): 1%
- Fbg (6 h): 303.8 mg/dL
- Hb (6 h): 13.3 g/dL
- Ht (6 h): 40%
- Lym (6 h): 83.6%
- MCH (6 h): 21.4 pg
- MCHC (6 h): 33.3%
- MCV (6 h): 64.4 fL
- Mono (6 h): 1.8%
- Neu (6 h): 13%
- PT (6 h): 13.4 s
- Plat (6 h): 117.3 x10_4/uL
- RBC (6 h): 619.6 x10_4/ul
- Ret (6 h): 8.6%
- WBC (6 h): 97.2 x10_2/uL
- KIDNEY_L (6 h): 0.9 g
- KIDNEY_R (6 h): 0.9 g
- KIDNEY_TOTAL (6 h): 1.9 g
- LIVER (6 h): 8.9 g
- A/G (6 h): 0.9
- ALP (6 h): 1305.2 IU/L
- ALT (6 h): 32.4 IU/L
- AST (6 h): 66.4 IU/L
- BUN (6 h): 8.8 mg/dL
- CRE (6 h): 0.2 mg/dL
- Ca (6 h): 10.8 mg/dL
- Cl (6 h): 105.6 meq/L
- DBIL (6 h): 0.016 mg/dL
- GLC (6 h): 178.2 mg/dL
- IP (6 h): 9.2 mg/dL
- K (6 h): 4.3 meq/L
- LDH (6 h): 70.4 IU/L
- Na (6 h): 142.8 meq/L
- PL (6 h): 143.2 mg/dL
- RALB (6 h): 2.5 g/dL
- TBIL (6 h): 0.058 mg/dL
- TC (6 h): 77.6 mg/dL
- TG (6 h): 62.8 mg/dL
- TP (6 h): 5.4 g/dL
- gamma-GTP (6 h): 1.4 IU/L
- TERMINAL_BW (9 h): 208.6 g
- APTT (9 h): 17.3 s
- Bas (9 h): 0%
- Eos (9 h): 1%
- Fbg (9 h): 299.8 mg/dL
- Hb (9 h): 13 g/dL
- Ht (9 h): 39.1%
- Lym (9 h): 79.8%
- MCH (9 h): 21.3 pg
- MCHC (9 h): 33.2%
- MCV (9 h): 64.3 fL
- Mono (9 h): 2.6%
- Neu (9 h): 16.6%
- PT (9 h): 14.3 s
- Plat (9 h): 114.6 x10_4/uL
- RBC (9 h): 608.6 x10_4/ul
- Ret (9 h): 8.1%
- WBC (9 h): 87.3 x10_2/uL
- KIDNEY_L (9 h): 0.9 g
- KIDNEY_R (9 h): 0.9 g
- KIDNEY_TOTAL (9 h): 1.8 g
- LIVER (9 h): 8.3 g
- A/G (9 h): 0.9
- ALP (9 h): 1557.4 IU/L
- ALT (9 h): 32.8 IU/L
- AST (9 h): 68.6 IU/L
- BUN (9 h): 9.4 mg/dL
- CRE (9 h): 0.2 mg/dL
- Ca (9 h): 10.5 mg/dL
- Cl (9 h): 106 meq/L
- DBIL (9 h): 0.018 mg/dL
- GLC (9 h): 178.6 mg/dL
- IP (9 h): 9.8 mg/dL
- K (9 h): 4 meq/L
- LDH (9 h): 70.2 IU/L
- Na (9 h): 142.2 meq/L
- PL (9 h): 135 mg/dL
- RALB (9 h): 2.6 g/dL
- TBIL (9 h): 0.06 mg/dL
- TC (9 h): 73.8 mg/dL
- TG (9 h): 57.2 mg/dL
- TP (9 h): 5.4 g/dL
- gamma-GTP (9 h): 1.4 IU/L
- TERMINAL_BW (24 h): 224 g
- APTT (24 h): 18.6 s
- Bas (24 h): 0.2%
- Eos (24 h): 0.8%
- Fbg (24 h): 290.6 mg/dL
- Hb (24 h): 13.4 g/dL
- Ht (24 h): 40.5%
- Lym (24 h): 79%
- MCH (24 h): 21.3 pg
- MCHC (24 h): 33%
- MCV (24 h): 64.4 fL
- Mono (24 h): 2.6%
- Neu (24 h): 16.6%
- PT (24 h): 14.3 s
- Plat (24 h): 121.1 x10_4/uL
- RBC (24 h): 628.8 x10_4/ul
- Ret (24 h): 7.6%
- WBC (24 h): 102.9 x10_2/uL
- KIDNEY_L (24 h): 1 g
- KIDNEY_R (24 h): 1 g
- KIDNEY_TOTAL (24 h): 2 g
- LIVER (24 h): 10.4 g
- A/G (24 h): 0.9
- ALP (24 h): 1587.4 IU/L
- ALT (24 h): 40.4 IU/L
- AST (24 h): 72.2 IU/L
- BUN (24 h): 14.6 mg/dL
- CRE (24 h): 0.2 mg/dL
- Ca (24 h): 11.1 mg/dL
- Cl (24 h): 105.2 meq/L
- DBIL (24 h): 0.022 mg/dL
- GLC (24 h): 180.8 mg/dL
- IP (24 h): 7.9 mg/dL
- K (24 h): 4.1 meq/L
- LDH (24 h): 74.6 IU/L
- Na (24 h): 143.6 meq/L
- PL (24 h): 148.2 mg/dL
- RALB (24 h): 2.6 g/dL
- TBIL (24 h): 0.05 mg/dL
- TC (24 h): 76.2 mg/dL
- TG (24 h): 104.2 mg/dL
- TP (24 h): 5.6 g/dL
- gamma-GTP (24 h): 1.2 IU/L
